According to patent publication US10787425B2, “Thiazolidinedione derivative and use thereof” (INDUSTRY-ACADEMIC COOPERATION FOUNDATION CHOSUN UNIVERSITY, priority 2016, dated 2020):

Experiments:
15-PGDH = 15-PGDH (Homo sapiens (Human), UniProt P15428); experiment: 15-PGDH inhibitory activity (NADH at 340 nm); type: biochemical; conditions: concentration inhibiting 50% of 15-PGDH activity; purified 15-PGDH, 21 μM PGE2, 0.25 mM NAD+
Experimental: The 15-PGDH cDNA plasmid containing the BamHI of the pGEX-2T expression vector and EcoRI restriction enzyme sites was transfected into E. coli BL-21 LysS by using conventional methods used in the art. Then, the transfected cells were cultured in an LB medium (500 ml) containing 50 μg/ml of ampicillin at a temperature of 37° C. and at a rate of 220 rpm until the OD600 reached 0.6. Then, isopropyl beta-D-thiogalactoxide (1 mM) was added and the cells were further cultured at the temperature of 25° C. for 12 hours. The cells were then centrifuged at the gravity of 4,000 g for 30 minutes at a temperature of 4° C. to collect a cell pellet. The cell pellet was dissolved in 20 ml of cell lysis buffer (containing 1×PBS buffer (pH 7.4): 1 mM EDTA and 0.1 mM DTT) and sonicated at a temperature of 4° C. for 14×10 s. The digested cells were centrifuged at the gravity of 4,000 g for 20 minutes at a temperature of 4° C. The supernatant was then slowly loaded onto a glutathione-sepharose 4B column equilibrated at a temperature of 4° C. with cell lysis buffer [containing 1×PBS buffer (pH 7.4), 1 mM EDTA, and 0.1 mM DTT]. Washing was performed thereon by using a dissolution buffer until the OD280 reached 0.005 or less. Then, 15-PGDH was eluted from the glutathione-sepharose 4B column at room temperature for 5 minutes by using an elution buffer [containing 50 mM Tris-HCl (pH 8.0), 10 mM reduced glutathione, 1 mM EDTA, and 0.1 mM DTT). The concentration of the purified enzyme was measured, and the purification level thereof was confirmed by SDS-PAGE.
That is, the cells were treated with a solution including 50 mM Tris-HCl (pH 7.5), 0.1 mM DTT, 0.25 mM (NAD+), 10 μg of purified 15-PGDH enzyme, 21 μM PGE2. and various concentrations (0.0001 μM to 64 μM) of the derivative compound according to the present disclosure. In this case, the total volume of the solution was 2 ml. Then, the absorbance of the reaction mixture was recorded at the wavelength of 340 nm. To measure the activity of the derivative compounds according to the present disclosure, which is an inhibitor of 15-PGDH, the average value of NADH absorbance at 340 nm at various concentrations was obtained from a standard curve.

A549 cells = experiment: Measurement of PGE2 concentration in A549 cell medium (ELISA); type: cell-based, human; conditions: for Increment %: PGE2 concentration versus PBS control, 5 μM, 12 hours; for PGE2 concentration: inhibitor 5 μM, medium collected after 12 hours, ELISA
Experimental: A549 cells were subcultured in RPMI 1640 medium (containing+8% fetal bovine serum (FBS) and antibiotic-antimycotic (AA)) for one week, and then, inoculated in a 6-well plate at 2.5×10^5 cells/mL (5×10^5 cells/well) and cultured for 24 hours in a 5% CO2 incubator at a temperature of 37° C. A549 cells are adenocarcinomic human alveolar basal epithelial cells which are derived from lung tissues. When cells were grown to about 80% confluence, a 15-PGDH inhibitor in 1×PBS buffer was injected at a concentration of 5 μM. To compare the results, the same amount of 1×PBS buffer was injected into a negative control, and, the treated cells were cultured in 5% CO2 incubator. After 12 hours, the medium was collected and the collected medium was assayed to measure PGE2 concentration by using an ELISA Kit (Abcam) according to the manufacturer's instructions. The concentration may be expressed as an exact value by plotting the calibration curve by using the absorbance value after diluting the standard in the medium by concentration.

15-PGDH, sequence (P15428 whole entry): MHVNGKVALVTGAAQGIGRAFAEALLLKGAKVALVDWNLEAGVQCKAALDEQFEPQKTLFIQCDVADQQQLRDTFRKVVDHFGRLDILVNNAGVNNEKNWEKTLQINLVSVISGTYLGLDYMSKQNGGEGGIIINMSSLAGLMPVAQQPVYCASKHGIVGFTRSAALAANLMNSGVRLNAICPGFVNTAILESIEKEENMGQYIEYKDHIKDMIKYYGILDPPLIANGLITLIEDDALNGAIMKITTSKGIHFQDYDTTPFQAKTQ

Work on `COc1cc(/C=C2\SC(=O)NC2=O)ccc1OC(=O)C1CC1` [Compound 31, (Z)-4-((2,4-dioxothiazolidin-5-ylidene)methyl)-2-methoxyphenyl cyclopropanecarboxylate] yielded an IC50 (15-PGDH) of 1100 nM, an Increment % (A549 cells) of 1.13% and a PGE2 concentration (A549 cells) of 199.4327 pg/mL.
For `COc1cc(/C=C2\SC(=O)NC2=O)ccc1OC(=O)C1CCC1` [Compound 32, (Z)-4-((2,4-dioxothiazolidin-5-ylidene)methyl)-2-methoxyphenyl cyclobutanecarboxylate], the IC50 (15-PGDH) was 1120 nM, the Increment % (A549 cells) was 60.62% and the PGE2 concentration (A549 cells) was 316.7495 pg/mL.
Work on `COc1cc(/C=C2\SC(=O)NC2=O)ccc1OC(=O)C1CCCC1` [Compound 33, (Z)-4-((2,4-dioxothiazolidin-5-ylidene)methyl)-2-methoxyphenyl cyclopentanecarboxylate] yielded an IC50 (15-PGDH) of 494 nM, an Increment % (A549 cells) of −2.32% and a PGE2 concentration (A549 cells) of 192.6292 pg/mL.
Work on `COc1cc(/C=C2\SC(=O)NC2=O)ccc1OC(=O)CC1CCCC1` [Compound 34, (Z)-4-((2,4-dioxothiazolidin-5-ylidene)methyl)-2-methoxyphenyl 2-cyclopentylacetate] yielded an IC50 (15-PGDH) of 60.2 nM, an Increment % (A549 cells) of −70.77% and a PGE2 concentration (A549 cells) of 57.64 pg/mL.
Compound `COc1cc(/C=C2\SC(=O)NC2=O)ccc1OC(=O)CCC1CCCC1` [Compound 35, (Z)-4-((2,4-dioxothiazolidin-5-ylidene)methyl)-2-methoxyphenyl 3-cyclopentylpropanoate] has an IC50 (15-PGDH) of 23.4 nM, an Increment % (A549 cells) of 130.79% and a PGE2 concentration (A549 cells) of 455.1278 pg/mL.
In the case of `COc1cc(/C=C2\SC(=O)NC2=O)ccc1OC(=O)C1CCCCC1` [Compound 36, (Z)-4-((2,4-dioxothiazolidin-5-ylidene)methyl)-2-methoxyphenyl cyclohexanecarboxylate], the IC50 (15-PGDH) is reported as 242 nM, the Increment % (A549 cells) is reported as 101.32% and the PGE2 concentration (A549 cells) is reported as 408.196 pg/mL.
Work on `COc1cc(/C=C2\SC(=O)NC2=O)ccc1OC(=O)CC1CCCCC1` [Compound 37, (Z)-4-((2,4-dioxothiazolidin-5-ylidene)methyl)-2-methoxyphenyl 2-cyclohexylacetate] yielded an IC50 (15-PGDH) of 27.8 nM, an Increment % (A549 cells) of 88.85% and a PGE2 concentration (A549 cells) of 382.9119 pg/mL.
`COc1cc(/C=C2\SC(=O)NC2=O)ccc1OC(=O)CCCC1CCCCC1` [Compound 39, (Z)-4-((2,4-dioxothiazolidin-5-ylidene)methyl)-2-methoxyphenyl 4-cyclohexylbutanoate] showed an IC50 (15-PGDH) of 17.5 nM, an Increment % (A549 cells) of 220.24% and a PGE2 concentration (A549 cells) of 649.318 pg/mL.
Compound `COc1cc(/C=C2\SC(=O)NC2=O)ccc1OC(=O)CCCCC1CCCCC1` [Compound 40, (Z)-4-((2,4-dioxothiazolidin-5-ylidene)methyl)-2-methoxyphenyl 5-cyclohexylpentanoate] has an IC50 (15-PGDH) of 28.2 nM, an Increment % (A549 cells) of 7.88% and a PGE2 concentration (A549 cells) of 218.7373 pg/mL.
`COc1cc(/C=C2\SC(=O)NC2=O)ccc1OC(=O)c1ccccc1.O=C(O)c1ccccc1` [Compound 41, (Z)-4-((2,4-dioxothiazolidin-5-ylidene)methyl)-2-methoxyphenyl benzoate] was tested, and the IC50 (15-PGDH) was 151 nM, the Increment % (A549 cells) was −88.34% and the PGE2 concentration (A549 cells) was 23.64 pg/mL.
`COc1cc(/C=C2\SC(=O)NC2=O)ccc1OC(=O)Cc1ccccc1` [Compound 42, (Z)-4-((2,4-dioxothiazolidin-5-ylidene)methyl)-2-methoxyphenyl 2-phenylacetate] showed an IC50 (15-PGDH) of 42.2 nM, an Increment % (A549 cells) of 97.64% and a PGE2 concentration (A549 cells) of 400.7345 pg/mL.
In the case of `COc1cc(/C=C2\SC(=O)NC2=O)ccc1OC(=O)CCc1ccccc1` [Compound 43, (Z)-4-((2,4-dioxothiazolidin-5-ylidene)methyl)-2-methoxyphenyl 3-phenylpropanoate], the IC50 (15-PGDH) is reported as 28.6 nM, the Increment % (A549 cells) is reported as 113.27% and the PGE2 concentration (A549 cells) is reported as 432.4258 pg/mL.
`COc1cc(/C=C2\SC(=O)NC2=O)ccc1OC(=O)CCCc1ccccc1` [Compound 44, (Z)-4-((2,4-dioxothiazolidin-5-ylidene)methyl)-2-methoxyphenyl 4-phenylbutanoate] gave an IC50 (15-PGDH) of 23.9 nM, an Increment % (A549 cells) of 299.80% and a PGE2 concentration (A549 cells) of 810.6337 pg/mL.
With `COc1cc(/C=C2\SC(=O)NC2=O)ccc1OC(=O)CCCCc1ccccc1` [Compound 45, (Z)-4-((2,4-dioxothiazolidin-5-ylidene)methyl)-2-methoxyphenyl 5-phenylpentanoate] the IC50 (15-PGDH) was 38.9 nM, the Increment % (A549 cells) was 78.78% and the PGE2 concentration (A549 cells) was 362.494 pg/mL.
With `CCOc1cc(/C=C2\SC(=O)NC2=O)ccc1OC(=O)C1CC1` [Compound 46, (Z)-4-((2,4-dioxothiazolidin-5-ylidene)methyl)-2-ethoxyphenyl cyclopropanecarboxylate] the IC50 (15-PGDH) was 2170 nM, the Increment % (A549 cells) was 1.78% and the PGE2 concentration (A549 cells) was 278.8555 pg/mL.
Work on `CCOc1cc(/C=C2\SC(=O)NC2=O)ccc1OC(=O)C1CCC1` [Compound 47, (Z)-4-((2,4-dioxothiazolidin-5-ylidene)methyl)-2-ethoxyphenyl cyclobutanecarboxylate] yielded an IC50 (15-PGDH) of 1620 nM, an Increment % (A549 cells) of −32.43% and a PGE2 concentration (A549 cells) of 185.1274 pg/mL.
Compound `CCOc1cc(/C=C2\SC(=O)NC2=O)ccc1OC(=O)C1CCCC1` [Compound 48, (Z)-4-((2,4-dioxothiazolidin-5-ylidene)methyl)-2-ethoxyphenyl cyclopentanecarboxylate] has an IC50 (15-PGDH) of 1400 nM, an Increment % (A549 cells) of −22.79% and a PGE2 concentration (A549 cells) of 211.539 pg/mL.
`CCOc1cc(/C=C2\SC(=O)NC2=O)ccc1OC(=O)CC1CCCC1` [Compound 49, (Z)-4-((2,4-dioxothiazolidin-5-ylidene)methyl)-2-ethoxyphenyl 2-cyclopentylacetate] was tested, and the IC50 (15-PGDH) was 128 nM, the Increment % (A549 cells) was 9.34% and the PGE2 concentration (A549 cells) was 299.5683 pg/mL.
For `CCOc1cc(/C=C2\SC(=O)NC2=O)ccc1OC(=O)CCC1CCCC1` [Compound 50, (Z)-4-((2,4-dioxothiazolidin-5-ylidene)methyl)-2-ethoxyphenyl 3-cyclopentylpropanoate], the IC50 (15-PGDH) was 29 nM, the Increment % (A549 cells) was 89.67% and the PGE2 concentration (A549 cells) was 519.6554 pg/mL.
In the case of `CCOc1cc(/C=C2\SC(=O)NC2=O)ccc1OC(=O)C1CCCCC1` [Compound 51, (Z)-4-((2,4-dioxothiazolidin-5-ylidene)methyl)-2-ethoxyphenyl cyclohexanecarboxylate], the IC50 (15-PGDH) is reported as 549 nM, the Increment % (A549 cells) is reported as 3.34% and the PGE2 concentration (A549 cells) is reported as 283.1296 pg/mL.
`CCOc1cc(/C=C2\SC(=O)NC2=O)ccc1OC(=O)CC1CCCCC1` [Compound 52, (Z)-4-((2,4-dioxothiazolidin-5-ylidene)methyl)-2-ethoxyphenyl 2-cyclohexylacetate] gave an IC50 (15-PGDH) of 32.8 nM, an Increment % (A549 cells) of −18.49% and a PGE2 concentration (A549 cells) of 223.32 pg/mL.
`CCOc1cc(/C=C2\SC(=O)NC2=O)ccc1OC(=O)CCCC1CCCCC1` [Compound 54, (Z)-4-((2,4-dioxothiazolidin-5-ylidene)methyl)-2-ethoxyphenyl 4-cyclohexylbutanoate] was tested, and the IC50 (15-PGDH) was 23.8 nM, the Increment % (A549 cells) was 202.57% and the PGE2 concentration (A549 cells) was 828.9774 pg/mL.
Compound `CCOc1cc(/C=C2\SC(=O)NC2=O)ccc1OC(=O)CCCCC1CCCCC1` [Compound 55, (Z)-4-((2,4-dioxothiazolidin-5-ylidene)methyl)-2-ethoxyphenyl 5-cyclohexylpentanoate] has an IC50 (15-PGDH) of 34.4 nM, an Increment % (A549 cells) of 7.8% and a PGE2 concentration (A549 cells) of 295.349 pg/mL.
